± gives the expanded uncertainty stated by the source.
Tests used:
[1] = Crystal; visual observation
[2] = Molar enthalpy of transition or fusion; details: Crystal; DSC

| Compound | Normal melting temperature [1] [°C] | Molar enthalpy of transition or fusion [2] [kcal/mol] |
| --- | --- | --- |
| Oc1cccc(O)c1 [1,3-benzenediol] | 110.50 ± 1.1 | 5.31 ± 0.158 |
| Ic1ccc(I)cc1 [1,4-diiodobenzene] | 130.00 ± 1.1 | 5.77 ± 0.17 |
